These results are taken from PubChem BioAssay AID651581 (Sanford-Burnham Center for Chemical Genomics, 2012).

In assay [1] the target is Endothelial PAS domain-containing protein 1 (Homo sapiens) (UniProt Q99814). As to the kind of experiment: potency against HIF reporters across cell lines – luminescence, panel, selectivity assay for HIF-2a inhibitor project, dose response (AID 651581). The note with it: human cell HIF reporter.
The target of assay [2] is Hypoxia-inducible factor 1-alpha (Homo sapiens) (UniProt Q16665). Described as above. The note with it: human cell HIF reporter, HIF-1a.
Sequence of Hypoxia-inducible factor 1-alpha (Homo sapiens) (Q16665 whole entry, looked up): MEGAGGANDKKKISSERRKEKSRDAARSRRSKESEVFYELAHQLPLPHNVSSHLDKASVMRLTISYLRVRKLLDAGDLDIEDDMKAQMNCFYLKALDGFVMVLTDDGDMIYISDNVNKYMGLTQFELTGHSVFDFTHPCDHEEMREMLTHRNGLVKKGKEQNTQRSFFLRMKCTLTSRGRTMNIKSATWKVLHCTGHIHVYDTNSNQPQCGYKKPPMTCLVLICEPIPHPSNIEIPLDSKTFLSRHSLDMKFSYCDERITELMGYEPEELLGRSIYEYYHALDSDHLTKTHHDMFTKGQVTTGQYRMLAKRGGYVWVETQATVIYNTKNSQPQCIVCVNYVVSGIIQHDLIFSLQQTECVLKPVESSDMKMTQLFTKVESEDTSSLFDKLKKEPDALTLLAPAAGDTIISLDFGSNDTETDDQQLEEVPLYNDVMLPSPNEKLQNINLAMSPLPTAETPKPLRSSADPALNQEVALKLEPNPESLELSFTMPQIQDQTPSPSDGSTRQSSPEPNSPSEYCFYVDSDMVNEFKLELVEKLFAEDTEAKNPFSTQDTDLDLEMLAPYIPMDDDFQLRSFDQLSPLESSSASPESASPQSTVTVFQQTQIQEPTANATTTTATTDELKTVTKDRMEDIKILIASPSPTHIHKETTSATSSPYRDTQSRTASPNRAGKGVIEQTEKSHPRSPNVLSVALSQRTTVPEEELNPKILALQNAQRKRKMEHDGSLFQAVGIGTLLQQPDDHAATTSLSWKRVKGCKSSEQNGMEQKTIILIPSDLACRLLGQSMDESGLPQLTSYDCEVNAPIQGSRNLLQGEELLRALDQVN

Calls of active or inactive are those of the source. How the calls were made is not given here.

By IC50 is commonly meant the midpoint of a concentration-inhibition curve. As to `CCOC(=O)CNC(=O)CSc1nnc(NC(=O)c2ccc(C)cc2)s1`, the IC50 result in assay [1] (HIF-2a PANC, mean of runs) is “inactive”. In addition, the half-maximal inhibitory concentration (IC50) in assay [1] (HIF-2a PANC, run 1) was 63.2 µM; in assay [1] (HIF-2a PANC, run 2), 25.5 µM; in assay [1] (HIF-2a, mean of runs), 9.66 µM; in assay [1] (HIF-2a, run 1), 11.8 µM; in assay [1] (HIF-2a, run 2), 7.56 µM; in assay [2] (run 1), above 99 µM. Moreover, the IC50 in assay [2] (run 2) is above 99 µM.
In the case of `CC(C)C[C@@H](N)c1nnc(SCC(=O)c2ccc(Cl)cc2)o1`, the concentration for half-maximal inhibition (IC50) in assay [1] (HIF-2a PANC, mean of runs) is 3.91 µM; in assay [1] (HIF-2a PANC, run 1), 4.22 µM; in assay [1] (HIF-2a PANC, run 2) it was 3.6 µM; in assay [1] (HIF-2a, mean of runs), 4.02 µM; in assay [1] (HIF-2a, run 1), 4.09 µM; in assay [1] (HIF-2a, run 2) it was 3.94 µM. In addition, the half-inhibitory concentration (IC50) in assay [2] (run 1) and in assay [2] (run 2) was above 99 µM throughout.
Consider `O=C(Nc1sc2c(c1C(=O)O)CCC2)c1ccccc1Cl`, for which the 50% inhibitory concentration (IC50) was above 99 µM in assay [1] (HIF-2a PANC, run 1); 50.5 µM in assay [1] (HIF-2a PANC, run 2); > 99 µM (inactive) in assay [1] (HIF-2a, mean of runs); above 99 µM in assay [1] (HIF-2a, run 1); above 99 µM in assay [1] (HIF-2a, run 2); 85.7 µM in assay [2] (run 1). This compound displayed a 50% inhibitory concentration (IC50) in assay [2] (run 2) above 99 µM.
As for `COC(=O)c1cccc(NC(=O)NC(=O)c2ccccc2Cl)c1`, the 50% inhibitory concentration (IC50) was 17.6 µM in assay [1] (HIF-2a PANC, run 1); above 99 µM in assay [1] (HIF-2a PANC, run 2); 7.56 µM in assay [1] (HIF-2a, mean of runs); 7.45 µM in assay [1] (HIF-2a, run 1); 7.66 µM in assay [1] (HIF-2a, run 2); above 99 µM in assay [2] (run 1). In assay [2] (run 2), the IC50 is above 99 µM.
Turning to `CC(C)c1ccc(/C=N/Nc2ccc(C(=O)O)cc2)cc1`, the IC50 was below 1 µM in assay [1] (HIF-2a PANC, mean of runs); below 3 µM in assay [1] (HIF-2a PANC, run 1); below 1 µM in assay [1] (HIF-2a PANC, run 2); 7.97 µM in assay [1] (HIF-2a, run 1); below 0.19 µM in assay [1] (HIF-2a, run 2); 24.8 µM in assay [2] (mean of runs). Further, the results for the IC50 in assay [2] (run 1) and in assay [2] (run 2) were 28 µM and 21.7 µM, respectively.
Regarding `N#C/C(=C\c1ccccc1)C(=O)N(c1ccccn1)C1CCCCC1`, the IC50 entry is “inactive” in assay [1] (HIF-2a PANC, mean of runs); “inactive” in assay [1] (HIF-2a, mean of runs); “inactive” in assay [2] (mean of runs). Also, the IC50 was 98.1 µM in assay [1] (HIF-2a PANC, run 1); 71.2 µM in assay [1] (HIF-2a PANC, run 2); 14.9 µM in assay [1] (HIF-2a, run 1); 13.7 µM in assay [1] (HIF-2a, run 2); 25.8 µM in assay [2] (run 1); 24.7 µM in assay [2] (run 2).
As for `CC(=O)Nc1ccc(OS(=O)(=O)c2ccc(C)cc2C)cc1`, the 50% inhibitory concentration (IC50) was 7.66 µM in assay [1] (HIF-2a PANC, mean of runs); 5.49 µM in assay [1] (HIF-2a PANC, run 1); 9.84 µM in assay [1] (HIF-2a PANC, run 2); 3.79 µM in assay [1] (HIF-2a, mean of runs); 3.7 µM in assay [1] (HIF-2a, run 1); 3.87 µM in assay [1] (HIF-2a, run 2). Besides, the IC50 in assay [2] (mean of runs) is 24.9 µM; in assay [2] (run 1), 28.2 µM; in assay [2] (run 2), 21.6 µM.
On to `C(=NNc1ccc2ccccc2n1)c1ccccn1`, for which, in assay [1] (HIF-2a PANC, mean of runs), the IC50 result is “inactive”. Moreover, the IC50 in assay [1] (HIF-2a PANC, run 1) was 44.8 µM; in assay [1] (HIF-2a PANC, run 2) it was 51.1 µM; in assay [1] (HIF-2a, mean of runs) it was 5.57 µM; in assay [1] (HIF-2a, run 1) it was 5.49 µM; in assay [1] (HIF-2a, run 2) it was 5.65 µM; in assay [2] (mean of runs), 23.5 µM. Further, the concentration for half-maximal inhibition (IC50) in assay [2] (run 1) stood at 22 µM; in assay [2] (run 2), 24.9 µM.
In the case of `Cc1csc(NC(=O)c2cn3ccccc3n2)n1`, the half-maximal inhibitory concentration (IC50) in assay [1] (HIF-2a PANC, mean of runs) was 17.5 µM; in assay [1] (HIF-2a PANC, run 1) it was 20.3 µM; in assay [1] (HIF-2a PANC, run 2), 14.8 µM; in assay [1] (HIF-2a, mean of runs), 7.98 µM; in assay [1] (HIF-2a, run 1), 7.58 µM; in assay [1] (HIF-2a, run 2), 8.38 µM. In addition, the values for the half-maximal inhibitory concentration (IC50) in assay [2] (run 1) and in assay [2] (run 2) were 11.9 µM and 12.5 µM, respectively. Moreover, the IC50 result in assay [2] (mean of runs) was “inactive”.
With `Cc1c(CCC(=O)N2CCC[C@H]2C(=O)O)c(=O)oc2cc3oc4c(c3cc12)CCCC4`, the IC50 was 1.12 µM in assay [1] (HIF-2a PANC, mean of runs); 1.11 µM in assay [1] (HIF-2a PANC, run 1); 1.12 µM in assay [1] (HIF-2a PANC, run 2); 0.512 µM in assay [1] (HIF-2a, mean of runs); 0.451 µM in assay [1] (HIF-2a, run 1); 0.574 µM in assay [1] (HIF-2a, run 2). Further, the IC50 in assay [2] (run 1) was found to be 0.824 µM; in assay [2] (run 2) it was 1.53 µM. Besides, in assay [2] (mean of runs), the IC50 result was “inactive”.
In the case of `CCN(CC)S(=O)(=O)c1ccc(NC(=O)c2cccnc2Cl)c(NC(=O)c2cccnc2Cl)c1`, the concentration for half-maximal inhibition (IC50) in assay [1] (HIF-2a PANC, mean of runs) is 9.99 µM; in assay [1] (HIF-2a PANC, run 1), 12.9 µM; in assay [1] (HIF-2a PANC, run 2) it was 7.07 µM; in assay [1] (HIF-2a, mean of runs), 10 µM; in assay [1] (HIF-2a, run 1) it was 9.42 µM; in assay [1] (HIF-2a, run 2), 10.6 µM. Further, the IC50 stood at 8.13 µM in assay [2] (run 1) and 16.9 µM in assay [2] (run 2). In assay [2] (mean of runs), the IC50 result is “inactive”.
As for `COc1cc(/C=C/[N+](=O)[O-])ccc1O`, the IC50 in assay [1] (HIF-2a PANC, mean of runs) is > 99 µM (inactive); in assay [1] (HIF-2a PANC, run 1) it was above 99 µM; in assay [1] (HIF-2a PANC, run 2), above 99 µM; in assay [1] (HIF-2a, run 1), 11.7 µM; in assay [1] (HIF-2a, run 2) it was 10.3 µM; in assay [2] (run 1), 25.2 µM. In addition, the concentration for half-maximal inhibition (IC50) in assay [2] (run 2) came to 28.3 µM. The IC50 result is “inactive” in assay [1] (HIF-2a, mean of runs) and “inactive” in assay [2] (mean of runs).
In the case of `Cc1nc2cc(-c3ccccc3)nn2c(C)c1CCC(=O)NCc1ccco1`, the IC50 was 4.77 µM in assay [1] (HIF-2a PANC, mean of runs); 6.92 µM in assay [1] (HIF-2a PANC, run 1); 2.62 µM in assay [1] (HIF-2a PANC, run 2); 1.81 µM in assay [1] (HIF-2a, mean of runs); 1.52 µM in assay [1] (HIF-2a, run 1); 2.1 µM in assay [1] (HIF-2a, run 2). Besides, the half-maximal inhibitory concentration (IC50) in assay [2] (run 1) and in assay [2] (run 2) was above 99 µM in each case.
